For series [1], the target named is RmTIM (TIM from R. microplus) (Rhipicephalus microplus, UniProt A8B3A8). The series can be described thus: biochemical.
For series [2], the system named is mice. Particulars: cited from earlier work.
The test system of series [3] is Trypanosoma cruzi TIM (TcTIM). Conditions: previously obtained; cited from earlier work.
The target of series [4] is T1, Homo sapiens TIM (HsTIM, HmTIM [sic] in Table 1) (Homo sapiens, UniProt P60174).
T1 construct: made in house; host or cells: E. coli
T1 sequence (P60174 whole entry): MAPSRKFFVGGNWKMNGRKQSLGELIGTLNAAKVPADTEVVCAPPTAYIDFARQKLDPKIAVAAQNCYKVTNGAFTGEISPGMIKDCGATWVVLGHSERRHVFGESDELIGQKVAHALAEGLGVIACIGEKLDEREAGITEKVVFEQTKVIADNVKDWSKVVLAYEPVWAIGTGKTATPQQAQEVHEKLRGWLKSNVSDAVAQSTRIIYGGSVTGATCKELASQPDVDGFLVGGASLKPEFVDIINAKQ
The series can be described thus: Human TIM inhibition (selectivity). It is filed as biochemical.

For series [5], the target named is Rabbit TIM (RbTIM) (Oryctolagus cuniculus, UniProt P00939). Put plainly: Rabbit TIM inhibition (selectivity). It is filed as biochemical.
Sequence of Rabbit TIM (RbTIM) (P00939 2-249 limits assumed): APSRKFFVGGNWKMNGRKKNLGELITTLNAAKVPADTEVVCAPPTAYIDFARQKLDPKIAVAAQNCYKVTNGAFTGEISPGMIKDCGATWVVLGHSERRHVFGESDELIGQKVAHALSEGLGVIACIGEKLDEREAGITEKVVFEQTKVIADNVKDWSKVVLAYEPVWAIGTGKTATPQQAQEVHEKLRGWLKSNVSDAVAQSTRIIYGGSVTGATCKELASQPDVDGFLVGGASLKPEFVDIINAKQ
The subject of series [6] is BME26 embryonic cells. The series can be described thus: MTT viability assay on BME26 embryonic cells. Conditions: for viability at 100 µM / IC50: Rhipicephalus microplus, BME26, MTT, 24 h; for viability at 100 µM: read-out: cell viability at 100 µM; for IC50: read-out: IC50 in BME26 cells (In vitro anti-R. microplus). It is filed as cell-based, Rhipicephalus microplus.

Details of series [7]: method as in PMID 22803666. Conditions: previous work; cited from earlier work.
The test system of series [8] is mammalian TIMs (rabbit and human). Put plainly: Mammalian TIM inhibition (rabbit and human, summarised). It is filed as biochemical. Particulars: 100 µM.
Series [9] relates to mice (strain B6D2F1). Particulars: male, B6D2F1, mouse, in vivo.
Series [10] concerns BME26 embryonic cells. The arrangement: method as in PMID 24956999, PMID 22036897. Particulars: widely used acaricide, comparison; cited from earlier work.

Values joined by “and” are separate entries in the source; they are usually repeats but may differ in a detail not shown here. Identical values can stand only once. “Also recorded” adds a separate entry of the source. Like-named read-outs stand apart in the source and are kept apart here.

Sequence of RmTIM (TIM from R. microplus) (A8B3A8 1-249): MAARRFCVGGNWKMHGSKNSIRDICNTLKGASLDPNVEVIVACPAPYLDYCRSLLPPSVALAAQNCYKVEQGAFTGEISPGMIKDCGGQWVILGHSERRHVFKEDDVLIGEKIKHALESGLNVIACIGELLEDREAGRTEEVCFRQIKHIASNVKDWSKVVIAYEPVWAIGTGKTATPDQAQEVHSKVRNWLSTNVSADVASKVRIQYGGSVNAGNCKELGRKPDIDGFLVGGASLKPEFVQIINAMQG

With `Cc1c(CNc2ccc3ccccc3c2)no[n+]1[O-]` [Compound 146], the half-inhibitory concentration (IC50) – broadly, the concentration that gives 50% inhibition – in [1] (read-out: IC50 (µM) RmTIM) was ~100 µM.
For the molecule `N#Cc1nn(-c2c(Cl)cc(C(F)(F)F)cc2Cl)c(N)c1[S+]([O-])C(F)(F)F` (centres unmarked) [fipronil], in series [2], the “acute oral LD50” value was 91 mg/kg.
Take `Cc1ccc(/C=C/C=N/N2CCN(C/C=C/c3ccccc3)CC2)o1` [Compound 222]: in series [1] (read-out: IC50 (µM) RmTIM), the IC50 lay within 50 to 100 µM.
Turning to `Cc1c(C=O)no[n+]1[O-]` [Compound 136], the IC50 in series [1] (read-out: IC50 (µM) RmTIM) is ~100 µM.
The same measure, in the same setting: next, `CC1(C)[N+]([O-])=c2ccc(/C=C/c3ccccc3)cc2=[N+]1[O-]` [Compound 39]: 50 to 100 µM; `O=C1C(=Cc2ccc([N+](=O)[O-])o2)C(=O)N(Cc2ccccc2)S(=O)(=O)N1Cc1ccccc1` [Compound 52]: 50 to 100 µM.
Consider `O=S(=O)(NCCc1ccccc1)NCCc1ccccc1` [Compound 62], for which the IC50 in series [1] (IC50 (µM) RmTIM) lay within 50 to 100 µM.
Turning to `C=CCn1c(-c2ccc(OC)cc2)cs/c1=N/N=C/c1ccc([N+](=O)[O-])s1` [Compound 70], the IC50 in [1] (read-out: IC50 (µM) RmTIM) was ~100 µM.
On the same count and under the same terms, next, `C=CCNC(=S)N/N=C/c1ccc2c(c1)[n+]([O-])c(C)c(C)[n+]2[O-]` [Compound 179]: ~100 µM.
For `Cc1ccc(-c2nsc(=O)[nH]2)cc1` [Compound 161], the IC50 is 4 µM in series [3] and 25 ± 3 µM in [1] (read-out: IC50 (µM) RmTIM). The values for the inhibition at 100 µM in series [4] and in [5] were 28% and 0%, respectively. For the same molecule, in series [4] (100 µM), the “% Inhibition at 100 µM HmTIM” value was “slight inhibitory activity”. Moreover, in series [6] (MTT, 100 µM), the “effect on BME26 cells” value is reported as “did not have any effect; also recorded: no activity”. For the same molecule, the viability (usually a per cent measure of how many cells are alive, often set against a control) at 100 µM in [6] (100 µM) came out at 100%. Further, the “penetration of biological membranes” value in [7] is given as “cannot penetrate biological membranes”.
As for `O=C1C(=Cc2ccc([N+](=O)[O-])cc2)C(=O)N(Cc2ccccc2)S(=O)(=O)N1Cc1ccccc1` [Compound 50], in [8], the “Mammalian Triosephosphate isomerase inhibition” value is on record as “did not affect”. Moreover, the “Toxicology: LD50” value in series [9] is 3 mmol/kg body weight in mice. The inhibition at 100 µM in series [4] and in series [5] was 0% in each case. For the same molecule, the IC50 is ~50 µM and 50 µM in series [1] (read-out: IC50 (µM) RmTIM); 71 ± 8 µM in series [6]. Further, in series [6] (100 µM), the viability at 100 µM stood at 42%.
As for `O=C(N/N=C/C=C/c1ccc([N+](=O)[O-])o1)Nc1ccc2ccccc2c1` [Compound 98], in [8], the “Mammalian Triosephosphate isomerase inhibition” value was “did not affect”. The “Toxicology: LD50” value in series [9] is listed as 3 mmol/kg body weight in mice. Besides, the inhibition (in general, the drop in the measured response relative to a control, in per cent) at 100 µM in [4] was found to be 14%; in [5], 21%. Moreover, the IC50 in series [1] (read-out: IC50 (µM) RmTIM) was ~50 µM and 50 µM; in [6] it was 67 ± 4 µM. For the same molecule, the viability at 100 µM in series [6] (100 µM) amounted to 40%.
Turning to ivermectin, the IC50 in series [10] is 3000 nM.
Regarding `O=C(N/N=C/c1c(-c2ccccc2)no[n+]1[O-])c1cnn(-c2ccccc2)c1` [Compound 134], in [1] (read-out: IC50 (µM) RmTIM), the half-maximal inhibitory concentration (IC50) was ~100 µM.
The same measure, in the same setting: for `Clc1ccc(-c2csc(N/N=C/C=C/c3ccco3)n2)cc1` [Compound 81] the value was 50 to 100 µM; for `O=[N+]([O-])c1ccc(/C=C/C=N/NC(=S)Nc2ccccc2)o1` [Compound 99], ~100 µM.
